Earlier results on two molecules are cited in article PMC9147171, “Pharmacokinetic/Pharmacodynamic Evaluation of a New Purine-2,6-Dione Derivative in Rodents with Experimental Autoimmune Diseases” (Pharmaceutics, 2022).

The structures appear in SMILES notation. Where two headings read alike, the source gives them in different places.

One data set concerns PDE7A. To be noted: read-out: IC50 (µM) Against PDE Isoform PDE7A; cited from earlier work.
For data set [1] the following is noted: mice; from the authors' previous investigations; cited from earlier work.
In another data set the target is T1, hrPDE1B (Homo sapiens, UniProt Q01064).
T1 construct: purchased SignalChem, Richmond, Canada
T1 sequence (Q01064 whole entry): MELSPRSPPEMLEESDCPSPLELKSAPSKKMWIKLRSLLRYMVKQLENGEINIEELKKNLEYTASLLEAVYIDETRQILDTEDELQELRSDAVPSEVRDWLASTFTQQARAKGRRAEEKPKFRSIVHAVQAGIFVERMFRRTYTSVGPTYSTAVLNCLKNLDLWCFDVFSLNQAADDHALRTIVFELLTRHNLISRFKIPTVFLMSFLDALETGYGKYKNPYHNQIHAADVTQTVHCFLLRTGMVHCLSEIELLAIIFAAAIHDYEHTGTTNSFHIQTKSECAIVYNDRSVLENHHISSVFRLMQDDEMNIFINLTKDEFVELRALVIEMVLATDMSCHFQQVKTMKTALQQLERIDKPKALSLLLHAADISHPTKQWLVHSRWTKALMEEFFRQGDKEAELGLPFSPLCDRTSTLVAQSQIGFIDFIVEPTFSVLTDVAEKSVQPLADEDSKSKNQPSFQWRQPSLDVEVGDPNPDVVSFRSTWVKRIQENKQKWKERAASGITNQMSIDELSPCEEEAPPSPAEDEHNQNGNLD
On the set-up: method as in PMID 31899535. The following applies: PDE1B; read-out: IC50 (µM) Against PDE Isoform (CV%) PDE1B; cited from earlier work.

In the next data set the target is T2, hrPDE3A (Homo sapiens, UniProt Q14432).
T2 construct: purchased SignalChem, Richmond, Canada
T2 sequence (Q14432 whole entry): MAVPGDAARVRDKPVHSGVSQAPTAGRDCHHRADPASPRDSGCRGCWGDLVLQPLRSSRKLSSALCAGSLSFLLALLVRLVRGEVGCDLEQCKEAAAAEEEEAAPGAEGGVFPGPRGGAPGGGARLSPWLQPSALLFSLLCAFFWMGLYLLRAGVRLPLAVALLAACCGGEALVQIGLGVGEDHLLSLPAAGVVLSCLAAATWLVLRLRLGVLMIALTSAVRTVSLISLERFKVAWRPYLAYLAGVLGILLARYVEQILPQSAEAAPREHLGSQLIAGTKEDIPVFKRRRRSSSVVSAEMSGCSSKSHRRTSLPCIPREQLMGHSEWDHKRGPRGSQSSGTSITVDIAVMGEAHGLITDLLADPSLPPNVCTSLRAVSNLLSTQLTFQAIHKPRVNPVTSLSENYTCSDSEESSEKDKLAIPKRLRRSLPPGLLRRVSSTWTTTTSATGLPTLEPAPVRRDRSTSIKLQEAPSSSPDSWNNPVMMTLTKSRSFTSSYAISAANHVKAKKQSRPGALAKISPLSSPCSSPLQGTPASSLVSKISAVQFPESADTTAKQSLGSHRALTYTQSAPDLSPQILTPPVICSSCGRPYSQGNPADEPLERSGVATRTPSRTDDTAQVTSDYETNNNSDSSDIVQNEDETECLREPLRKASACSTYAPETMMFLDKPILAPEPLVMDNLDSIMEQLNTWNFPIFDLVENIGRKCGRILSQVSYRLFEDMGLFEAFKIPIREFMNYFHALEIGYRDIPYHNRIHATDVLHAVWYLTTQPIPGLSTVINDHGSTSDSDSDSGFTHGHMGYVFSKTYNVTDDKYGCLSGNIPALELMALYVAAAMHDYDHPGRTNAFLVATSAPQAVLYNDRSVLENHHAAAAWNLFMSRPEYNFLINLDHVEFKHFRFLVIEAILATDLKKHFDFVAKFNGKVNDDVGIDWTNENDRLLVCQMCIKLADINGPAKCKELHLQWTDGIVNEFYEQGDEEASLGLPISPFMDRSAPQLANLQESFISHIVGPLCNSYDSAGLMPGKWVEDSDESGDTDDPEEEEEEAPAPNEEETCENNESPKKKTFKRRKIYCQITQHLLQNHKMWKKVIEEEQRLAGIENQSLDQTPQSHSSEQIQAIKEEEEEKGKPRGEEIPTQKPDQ
Details: method as in PMID 31899535. The following applies: PDE3A; read-out: IC50 (µM) Against PDE Isoform (CV%) PDE3A; cited from earlier work.

The conditions of data set [2]: rats; from the authors' previous investigations; cited from earlier work.
The test system of another data set is PDE4B. To be noted: read-out: IC50 (µM) Against PDE Isoform PDE4B; cited from earlier work.

For `Cc1ccc([N+](=O)[O-])cc1S(=O)(=O)N(C)C` [BRL—50481], in the data set on PDE7A, the IC50 (in general, the point on the concentration scale where inhibition reaches its midpoint) is 2.1 µM.

As for `Cn1c(=O)c2c(nc(NCCc3ccccc3)n2CCCC(=O)NN=Cc2ccccc2O)n(C)c1=O` [GRMS-55], the half-life result in data set [1] and in data set [2] was “around 30 min” throughout. Also, the half-maximal inhibitory concentration (IC50) was 2.5 µM on hrPDE1B, 13.4 µM at hrPDE3A, 7.3 µM in the data set on PDE7A and 26.9 µM in the data set on PDE4B.
